Tested on: AMP-activated protein kinase (AMPK)
Test: p-AMPK expression level in L6 cell line by Western blot
Format: cell-based
Settings: L6 cells, 2 hours compound treatment
Protocol: Evaluation of p-AMPK and p-ACC expression level in L6 cell line by Western-Blot
This method evaluates the changes of AMP-activated protein kinase (AMPK) and ACC (acetyl-CoA carboxylase) activity by small molecular modulators through detecting the level of p-AMPK and p-ACC proteins in L6 cells using Western blot.
L6 cells are maintained in DMEM medium supplemented with 10% FBS in 10-cm dishes. Prior to compounds treatment, L6 cells are seeded in 12-well-plates at concentration of 3×10^4 cells per well. After 24 hours of incubation in 12-well plates, L6 cells are differentiated by replacing the 10% FBS-DMEM medium with 2% FBS-DMEM. Differentiation usually takes 5 days, during which the culture medium is changed every 2 days.
The compound concentrations typically range from 32 μM to 0.5 μM with 2-fold dilution in 2 ml DMEM and 7 doses. The final DMSO concentration is 0.4%. Berberine is used as a positive control at concentration of 16 μM. Before compound treatment, starve L6 cells for 2 hours by replacing the medium with DMEM, and then gently aspirate the media from each well. Add the compounds into the plates and incubate at 37 degree 5% CO2 for 2 hours.
Prepare lysis buffer (RIPA buffer with protease-inhibitors and phosphorate-inhibitors) and place it on ice. After two hour's compound treatment, aspirate the medium from 12-well plates, add 70 ul lysis buffer to each well and keep the plates on ice for 5 min. Then scrape the cell lysate off the plates and transfer it to 1.5 ml eppendorf tubes. Keep the tube on ice for more 10 min, centrifugate the lysate at 13000 rpm, 4 degrees for 15 min and transfer the supernatant to clean tubes.
Determine protein concentration for each sample using Quickstart Bradford protein quantitation kit. Mix 20 ug protein sample with 4 times loading buffer, heat them at 100° C. for 5 min, store the sample in −80° C. or perform Western blot assay directly. For Western blot assay, load 20 ug samples and 10 ul Pre-stained Protein Maker into 4-12% SDS-PAGE gradient gel. Run the samples at 100 V in the stacking gel and at 120 V in resolving gel until the Bromophenol dye reaches the bottom. Transfer the electrophoresed proteins to a PVDF membrane using Bio-Rad's Transblot for 120 min at 300 mA. Following the completion of transfer, the membrane is blocked with 5% non-fat milk for 2 hours at room temperature before incubated with primary antibody (p-AMPK and p-ACC) at 4° C. overnight. On the next day wash the membrane twice with TBST, add secondary antibody and incubate for 1 hour at room temperature. Wash the membrane twice with TBST. Develop p-AMPK and p-ACC protein expression level on the film in dark room with Amersham ECL plus kit. The bands of each sample are quantitated by Bio-Rad system, The AC1.3 value is analyzed using Prism 5.0.

In order of falling “Activity AC1.3 (AMPKp)” value:
1. CC1(C)CC(c2ccc(F)c(Cl)c2)Nc2ccc(C(=O)NS(=O)(=O)C3CC3)nc21 (stereo not shown) [Example 78, Cyclopropanesulfonic acid [6-(3-chloro-4-fluoro-phenyl)-8,8-dimethyl-5,6,7,8-tetrahydro-[1,5]naphthyridine-2-carbonyl]-amide]  28.9 µM
2. Cc1cc(C(=O)NS(=O)(=O)C2CC2)cc2c1NC(c1cccc(N3CCOCC3)c1)CC2(C)C (stereo not shown) [Example 66, Cyclopropanesulfonic acid [4,4,8-trimethyl-2-(3-morpholin-4-yl-phenyl)-1,2,3,4-tetrahydro-quinoline-6-carbonyl]-amide]  12.8 µM
3. CS(=O)(=O)NC(=O)c1ccc2c(c1)C1(CCCC1)CC(c1cccc(N3CCOCC3)c1)N2 (stereo not shown) [Example 5, N-(methylsulfonyl)-2′-(3-morpholinophenyl)-2′,3′-dihydro-1′H-spiro[cyclopentane-1,4′-quinoline]-6′-carboxamide]  9 µM
4. CC1(C)CC(c2cccc(N3CCOCC3)c2)Nc2ccc(C(=O)NS(=O)(=O)C3CC3)nc21 (stereo not shown) [Example 79, Cyclopropanesulfonic acid [8,8-dimethyl-6-(3-morpholin-4-yl-phenyl)-5,6,7,8-tetrahydro-[1,5]naphthyridine-2-carbonyl]-amide]  4.46 µM
5. CC1(C)CC(c2cccc(N3CCCC3)c2)Nc2ccc(C(=O)NS(=O)(=O)C3CC3)cc21 (stereo not shown) [Example 52, Cyclopropanesulfonic acid [4,4-dimethyl-2-(3-pyrrolidin-1-yl-phenyl)-1,2,3,4-tetrahydro-quinoline-6-carbonyl]-amide]  0.55 µM
6. CC1(C)CC(c2ccc(F)c(Cl)c2)Nc2ccc(C(=O)NS(C)(=O)=O)nc21 (stereo not shown) [Example 81, N-[6-(3-chloro-4-fluoro-phenyl)-8,8-dimethyl-5,6,7,8-tetrahydro-[1,5]naphthyridine-2-carbonyl]-methanesulfonamide]  0.43 µM
7. CC1(C)CC(c2cccc(C#N)c2)Nc2ccc(C(=O)NS(=O)(=O)C3CC3)cc21 (stereo not shown) [Example 35, Cyclopropanesulfonic acid [2-(3-cyano-phenyl)-4,4-dimethyl-1,2,3,4-tetrahydro-quinoline-6-carbonyl]-amide]  0.24 µM
8. CC1(C)CC(c2cc(N3CCOCC3)ccc2Cl)Nc2ccc(C(=O)NS(=O)(=O)C3CC3)cc21 (stereo not shown) [Example 25, Cyclopropanesulfonic acid [2-(2-chloro-5-morpholin-4-yl-phenyl)-4,4-dimethyl-1,2,3,4-tetrahydro-quinoline-6-carbonyl]-amide]  0.21 µM
9. CC1(C)CC(c2cccc(NC3(C(=O)O)CC3)c2)Nc2ccc(S(=O)(=O)NC3CCC3)cc21 (stereo not shown) [Example 84, 1-[3-(6-Cyclobutylsulfamoyl-4,4-dimethyl-1,2,3,4-tetrahydro-quinolin-2-yl)-phenylamino]-cyclopropanecarboxylic acid]  0.2 µM
10. CN1CCN(c2cccc(C3CC(C)(C)c4cc(C(=O)NS(=O)(=O)C5CC5)ccc4N3)c2)CC1 (stereo not shown) [Example 51, Cyclopropanesulfonic acid {4,4-dimethyl-2-[3-(4-methyl-piperazin-1-yl)-phenyl]-1,2,3,4-tetrahydro-quinoline-6-carbonyl}-amide]  0.18 µM
11. Cc1ccc(N2CCN(c3cncc(C4CC(C)(C)c5cc(C(=O)NS(=O)(=O)C6CC6)ccc5N4)c3)CC2)c(C)c1 (stereo not shown) [Example 50, Cyclopropanesulfonic acid (2-{5-[4-(2,4-dimethyl-phenyl)-piperazin-1-yl]-pyridin-3-yl}-4,4-dimethyl-1,2,3,4-tetrahydro-quinoline-6-carbonyl)-amide]  0.16 µM
12. CN(C)c1cccc(C2CC(C)(C)c3cc(Cl)cc(C(=O)NS(=O)(=O)C4CC4)c3N2)c1 (stereo not shown) [Example 61, Cyclopropanesulfonic acid [6-chloro-2-(3-dimethylamino-phenyl)-4,4-dimethyl-1,2,3,4-tetrahydro-quinoline-8-carbonyl]-amide]  0.1 µM
13. CC1(C)CC(c2cccc(N3CCOC3=O)c2)Nc2c(C(=O)NS(C)(=O)=O)cc(Cl)cc21 (stereo not shown) [Example 64, N-{6-chloro-4,4-dimethyl-2-[3-(2-oxo-oxazolidin-3-yl)-phenyl]-1,2,3,4-tetrahydro-quinoline-8-carbonyl}-methanesulfonamide]  0.1 µM
14. CC1(C)CC(c2cccc(C#N)c2)Nc2ccc(C(=O)NS(C)(=O)=O)cc21 (stereo not shown) [Example 33, N-[2-(3-cyano-phenyl)-4,4-dimethyl-1,2,3,4-tetrahydro-quinoline-6-carbonyl]-methanesulfonamide]  0.08 µM
15. CC1(C)CC(c2cccc(C(N)=O)c2)Nc2ccc(C(=O)NS(=O)(=O)C3CC3)cc21 (stereo not shown) [Example 34, 3-(6-Cyclopropanesulfonylaminocarbonyl-4,4-dimethyl-1,2,3,4-tetrahydro-quinolin-2-yl)-benzamide]  0.08 µM
16. CC1(C)CC(c2cccc(N3CCCC3)c2)Nc2c(C(=O)NS(C)(=O)=O)cc(Cl)cc21 (stereo not shown) [Example 71, N-[6-chloro-4,4-dimethyl-2-(3-pyrrolidin-1-yl-phenyl)-1,2,3,4-tetrahydro-quinoline-8-carbonyl]-methanesulfonamide]  0.08 µM
17. CC1(C)CC(c2cncc(N3CCOCC3)c2)Nc2ccc(C(=O)NS(=O)(=O)C3CC3)cc21 (stereo not shown) [Example 54, Cyclopropanesulfonic acid [4,4-dimethyl-2-(5-morpholin-4-yl-pyridin-3-yl)-1,2,3,4-tetrahydro-quinoline-6-carbonyl]-amide]  0.03 µM
18. CC1(C)CC(c2cccc(N3CCOCC3)c2)Nc2c(C(=O)NS(C)(=O)=O)cc(F)cc21 (stereo not shown) [Example 56, N-[6-fluoro-4,4-dimethyl-2-(3-morpholin-4-yl-phenyl)-1,2,3,4-tetrahydro-quinoline-8-carbonyl]-methanesulfonamide]  0.03 µM
19. Cc1ccc(N2CCOC2=O)cc1C1CC(C)(C)c2cc(C(=O)NS(=O)(=O)C3CC3)ccc2N1 (stereo not shown) [Example 28, Cyclopropanesulfonic acid {4,4-dimethyl-2-[2-methyl-5-(2-oxo-oxazolidin-3-yl)-phenyl]-1,2,3,4-tetrahydro-quinoline-6-carbonyl}-amide]  0.02 µM
20. CN1CCN(c2cccc(C3CC(C)(C)c4cccc(C(=O)NS(C)(=O)=O)c4N3)c2)CC1 (stereo not shown) [Example 67, N-{4,4-dimethyl-2-[3-(4-methyl-piperazin-1-yl)-phenyl]-1,2,3,4-tetrahydro-quinoline-8-carbonyl}-methanesulfonamide]  0.02 µM
21. CC(C)(Nc1cccc(C2CC(C)(C)c3cc(S(=O)(=O)N4CCOCC4)ccc3N2)c1)C(=O)O (stereo not shown) [Example 82, 2-{3-[4,4-Dimethyl-6-(morpholine-4-sulfonyl)-1,2,3,4-tetrahydro-quinolin-2-yl]-phenylamino}-2-methyl-propionic acid]  0.02 µM
22. Cc1ccc(N2CCOC2=O)cc1C1CC(C)(C)c2cc(C(=O)NS(C)(=O)=O)ccc2N1 (stereo not shown) [Example 27, N-{4,4-dimethyl-2-[2-methyl-5-(2-oxo-oxazolidin-3-yl)-phenyl]-1,2,3,4-tetrahydro-quinoline-6-carbonyl}-methanesulfonamide]  0.01 µM
23. CC1(C)CC(c2cccc(NC3(C(=O)O)CC3)c2)Nc2ccc(S(=O)(=O)N3CCOCC3)cc21 (stereo not shown) [Example 83, 1-{3-[4,4-Dimethyl-6-(morpholine-4-sulfonyl)-1,2,3,4-tetrahydro-quinolin-2-yl]-phenylamino}-cyclopropanecarboxylic acid]  0.01 µM
24. Cc1ccc(N2CCN(c3cccc(C4CC(C)(C)c5cc(F)cc(C(=O)NS(C)(=O)=O)c5N4)c3)CC2)cc1 (stereo not shown) [Example 68, N-{6-fluoro-4,4-dimethyl-2-[3-(4-p-tolyl-piperazin-1-yl)-phenyl]-1,2,3,4-tetrahydro-quinoline-8-carbonyl}-methanesulfonamide]  0.003 µM
25. CC1(C)CC(c2cccc(C(N)=O)c2)Nc2ccc(C(=O)NS(C)(=O)=O)cc21 (stereo not shown) [Example 32, 3-(6-Methanesulfonylaminocarbonyl-4,4-dimethyl-1,2,3,4-tetrahydroquinolin-2-yl)-benzamide]  0.002 µM
